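Five compound concentrations were applied to cells in 96-well plates for 48 hours; endpoints were derived by simple linear interpolation of the resulting dose-response curve. Here, GI50 denotes the concentration required for 50% inhibition of growth.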 Active and inactive are the calls of the source. Cut-off read from the data, not from the text of the source: active = GI50 up to about 1.1 µM and inactive = higher.
What was measured:
Assay in all cases: NCI tumour cell line growth inhibition, 48 h
[1] = tested on: A549
[2] = tested on: EKVX
[3] = tested on: HCT-116
[4] = tested on: HCT-15
[5] = tested on: IGROV-1
[6] = tested on: LOX IMVI
[7] = tested on: MCF7
[8] = tested on: NCI-H226
[9] = tested on: NCI-H522
[10] = tested on: OVCAR-3
[11] = tested on: OVCAR-4
[12] = tested on: OVCAR-5
[13] = tested on: RPMI-8226
[14] = tested on: SF-268
[15] = tested on: SK-MEL-28
[16] = tested on: SK-MEL-5
[17] = tested on: SNB-75
[18] = tested on: UACC-257
[19] = tested on: UO-31
[20] = tested on: CAKI-1

SMILES	GI50 [1]	GI50 [2]	GI50 [3]	GI50 [4] [µM]	GI50 [5]	GI50 [6]	GI50 [7]	GI50 [8]	GI50 [9]	GI50 [10]	GI50 [11]	GI50 [12]	GI50 [13]	GI50 [14]	GI50 [15]	GI50 [16]	GI50 [17]	GI50 [18]	GI50 [19]	GI50 [20]
COc1cc(/C=C/C(=O)O)ccc1C(=O)O/C=C/c1ccccc1	> 100 µM (inactive)	> 100 µM (inactive)	> 72.8 µM (inactive)	99.8	> 100 µM (inactive)	73.1 µM (inactive)	73.5 µM (inactive)	> 100 µM (inactive)	> 61.9 µM (inactive)	> 100 µM (inactive)	> 100 µM (inactive)	> 100 µM (inactive)	> 100 µM (inactive)	> 100 µM (inactive)	> 100 µM (inactive)	> 100 µM (inactive)	67 µM (inactive)	> 100 µM (inactive)	> 66.7 µM (inactive)	–
CC(C)C(=O)CC(c1ccc(Br)cc1)N1N=C(C(C)C)CC1c1ccc(Br)cc1 (stereo not given)	96.8 µM (inactive)	44.9 µM (inactive)	29.4 µM (inactive)	62.4	–	55.8 µM (inactive)	–	> 100 µM (inactive)	65.9 µM (inactive)	70.8 µM (inactive)	> 100 µM (inactive)	> 100 µM (inactive)	–	> 100 µM (inactive)	> 100 µM (inactive)	–	–	–	68.7 µM (inactive)	> 100 µM (inactive)
COc1ccc2[nH]c3c(C)c4ccnc(NCCCN(C)CCCNc5ccc6nnn7c8ccccc8c(=O)c5c67)c4c(C)c3c2c1	0.0395 µM (active)	1.01 µM (active)	0.0217 µM (active)	0.114	0.308 µM (active)	0.228 µM (active)	0.0561 µM (active)	> 10 µM (inactive)	0.107 µM (active)	1.17 µM (inactive)	1.02 µM (active)	1.24 µM (inactive)	0.0474 µM (active)	0.679 µM (active)	1.75 µM (inactive)	–	1.01 µM (active)	1.43 µM (inactive)	0.603 µM (active)	1.03 µM (active)
ICC1CCCO1 (stereo not given)	> 100 µM (inactive)	> 100 µM (inactive)	> 100 µM (inactive)	> 100	> 100 µM (inactive)	> 100 µM (inactive)	–	> 100 µM (inactive)	–	–	> 100 µM (inactive)	> 100 µM (inactive)	> 100 µM (inactive)	> 100 µM (inactive)	> 100 µM (inactive)	> 100 µM (inactive)	> 100 µM (inactive)	> 100 µM (inactive)	–	> 100 µM (inactive)
CC(C)=CCc1c(C)cc2cc3c(c(O)c2c1O)C(=O)C=C(O)C3(CC=C(C)C)C/C=C(\C)CO (stereo not given)	33.3 µM (inactive)	35.7 µM (inactive)	37 µM (inactive)	28	38.1 µM (inactive)	38.5 µM (inactive)	42.7 µM (inactive)	34.2 µM (inactive)	27.9 µM (inactive)	36.9 µM (inactive)	37 µM (inactive)	48.2 µM (inactive)	20.7 µM (inactive)	36.7 µM (inactive)	46.2 µM (inactive)	16.4 µM (inactive)	48.3 µM (inactive)	43.7 µM (inactive)	29 µM (inactive)	46.3 µM (inactive)
O=C1c2ccccc2C(=O)N1CC(CN1C(=O)c2ccccc2C1=O)(C(=O)OCc1ccccc1)C(=O)OCc1ccccc1	–	–	> 100 µM (inactive)	> 100	> 100 µM (inactive)	–	–	> 100 µM (inactive)	> 100 µM (inactive)	> 100 µM (inactive)	–	> 100 µM (inactive)	> 100 µM (inactive)	–	> 100 µM (inactive)	> 100 µM (inactive)	> 100 µM (inactive)	–	> 100 µM (inactive)	> 100 µM (inactive)
COC(=O)NCCc1n[nH]c2c1C(=O)C=C(N1CCOCC1)C2=O	> 100 µM (inactive)	> 100 µM (inactive)	> 100 µM (inactive)	> 100	> 100 µM (inactive)	> 100 µM (inactive)	> 100 µM (inactive)	> 100 µM (inactive)	> 100 µM (inactive)	> 100 µM (inactive)	> 100 µM (inactive)	> 100 µM (inactive)	> 100 µM (inactive)	> 100 µM (inactive)	> 100 µM (inactive)	> 100 µM (inactive)	> 100 µM (inactive)	> 100 µM (inactive)	> 100 µM (inactive)	> 100 µM (inactive)
CC(=O)OC1CCn2c1nc1cc([N+](=O)[O-])c(C)cc12 (stereo not given)	> 100 µM (inactive)	> 100 µM (inactive)	> 100 µM (inactive)	> 100	> 100 µM (inactive)	> 100 µM (inactive)	> 100 µM (inactive)	> 100 µM (inactive)	> 100 µM (inactive)	> 100 µM (inactive)	> 100 µM (inactive)	–	> 100 µM (inactive)	> 100 µM (inactive)	> 100 µM (inactive)	> 100 µM (inactive)	> 100 µM (inactive)	> 100 µM (inactive)	> 100 µM (inactive)	> 100 µM (inactive)

Reference: ChEMBL document CHEMBL1201862, “PubChem BioAssay data set” (2004)
